Measurements taken from US6534035B1, “Methods of inhibiting clot formation” (President and Fellows of Harvard College, priority 1998, dated 2003).
Peptide text beside a SMILES is read from it. * marks the point of attachment. Biotin = O=C1N[C@H]2[C@H](CS[C@H]2CCCCC(=O)*)N1

Molecular target: T1, FXIIIa (Homo sapiens, UniProt P00488)
T1 construct: purchased American Diagnostica
T1 sequence (P00488 39-732 limits assumed): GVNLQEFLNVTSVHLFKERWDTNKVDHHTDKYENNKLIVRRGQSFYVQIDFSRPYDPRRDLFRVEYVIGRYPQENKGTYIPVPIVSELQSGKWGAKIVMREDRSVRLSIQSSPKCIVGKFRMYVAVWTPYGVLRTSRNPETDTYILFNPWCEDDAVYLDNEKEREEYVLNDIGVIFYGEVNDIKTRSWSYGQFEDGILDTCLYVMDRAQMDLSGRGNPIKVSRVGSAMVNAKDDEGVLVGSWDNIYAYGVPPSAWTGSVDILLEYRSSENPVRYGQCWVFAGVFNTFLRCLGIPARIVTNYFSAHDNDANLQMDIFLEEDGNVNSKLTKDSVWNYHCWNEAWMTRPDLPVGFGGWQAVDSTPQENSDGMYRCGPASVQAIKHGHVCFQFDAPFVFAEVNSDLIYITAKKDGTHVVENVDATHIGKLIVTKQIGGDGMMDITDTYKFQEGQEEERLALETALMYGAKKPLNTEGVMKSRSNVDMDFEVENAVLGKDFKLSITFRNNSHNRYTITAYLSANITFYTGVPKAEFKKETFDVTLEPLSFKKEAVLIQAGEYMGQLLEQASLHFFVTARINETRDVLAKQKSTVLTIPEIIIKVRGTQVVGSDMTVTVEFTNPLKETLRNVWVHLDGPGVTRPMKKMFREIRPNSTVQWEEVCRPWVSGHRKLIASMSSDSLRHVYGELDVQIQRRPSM
Test: Dose-dependent crosslinking of α2AP13-24 into fibrin clots
Format: biochemical
Details: fibrin clots, compared to control clots
Procedure: Experiments were performed to determine how long FXIIIa in clots could crosslink various substrates such as human ^125I -α2AP, α2AP13-24 (SEQ ID NO:2), and 5-(biotinamido)pentylamine, into fibrin. In a typical experiment, clots were prepared (50 μl final volume) in duplicate by combining fibrinogen (2 mg/ml final), CaCl2 (2 mM final), buffer (Tris-buffered saline pH 7.4) and thrombin (1 U/ml) and incubating at 37° C. Synchronous with the addition of thrombin, or up to 240 minutes afterwards, the FXIIIa substrates 5-(biotinamido)pentylamine (0.5 mM final), ^125I -α2AP (70 μg/ml final), and α2AP13-24 (0 to 1 mM final) were mixed and added to the clot. […] Crosslinked ^125I-α2AP was detected and quantitated by phosphorimaging. Samples containing crosslinked α2AP13-24 and pentylamine substrates were electroblotted to PVDF membranes and detected by ^125I-streptavidin followed by phosphorimaging or by streptavidin-peroxidase followed by the developing agents 5-bromo-4-chloro-3-indolyl phosphate-nitro blue tetrazolium using methods known in the art. In experiments examining the effect of specific amino acid residues on the crosslinking of the α2AP13-24 peptide (SEQ ID NO:2) to fibrin, crosslinking was detected by immunoblotting with an anti-peptide antibody directed against this epitope followed by ^125I-protein A and phosphorimaging. […]

## CC(C)C[C@H](NC(=O)[C@H](CC(C)C)NC(=O)[C@@H](NC(=O)[C@H](CC(C)C)NC(=O)[C@@H]1CCCN1C(=O)[C@H](CO)NC(=O)[C@@H](NC(=O)[C@H](CCC(N)=O)NC(=O)[C@H](CCC(=O)O)NC(=O)[C@H](CCC(N)=O)NC(=O)[C@@H](N)CC(N)=O)C(C)C)[C@@H](C)O)C(=O)N[C@@H](CCCCNC(=O)CCCC[C@@H]1SC[C@@H]2NC(=O)N[C@@H]21)C(=O)O [α2AP13-24, NQEQVSPLTLLK] (H-NQEQVSPLTLLK(Biotin)-OH)
  lowest concentration at which crosslinking is seen: 1.3 µM
